The values below come from patent US10077261B2, “Imidazolin-5-one derivative useful as FASN inhibitors for the treatment of cancer” (Janssen Pharmaceutica NV, priority 2012, dated 2018).

In test [1] the target is T1, hFASN enzyme (full length) (Homo sapiens, UniProt P49327).
T1 construct: 10 μL hFASN enzyme (full length, 300 ng, purified in house); made in house
Briefly: Fatty Acid Synthase (FASN) inhibition scintillation proximity assay. In kind it is biochemical. Particulars: for inhibition at 10 µM: read-out: Human FASN % inhibition @ 10 μM, 10 μM test compound; for IC50: read-out: Human FASN pIC50 (converted). The method, boiled down: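 Full-length in-house purified enzyme (300 ng) was tested in 100 mM KH2PO4 pH 7.5, 1 mM DTT with ³H-acetyl-CoA and malonyl-CoA as substrates; compounds ranged 0.01–30 μM. Reactions were stopped with streptavidin imaging beads, read by LEADseeker at 610 nm, and fitted to a 4-parameter logistic curve.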
Background: SPA uses beads or plates that emit light when radiolabelled molecules are held near them.

For test [2], the system named is A2780 ovarian cells. Nature of the test: A2780 ovarian cell proliferation assay in lipid reduced medium, with palmitate (MTT). In kind it is cell-based. To be noted: Homo sapiens, A2780, 96 h; read-out: pIC50 A2780 Ovarian Cell, With Palmitate (converted). Put shortly: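 Seeded cells were switched next day to lipid-reduced serum, exposed to compound and 25 μM palmitate complexed with fatty-acid-free BSA, and incubated 96 h. Proliferation was then determined by MTT absorbance at 544 nm, with a best-fit curve of signal against concentration.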

The test system of test [3] is A2780 ovarian cells. Nature of the test: A2780 ovarian cell proliferation assay in lipid reduced medium, without palmitate (MTT). In kind it is cell-based. Particulars: Homo sapiens, A2780, 96 h; read-out: pIC50 A2780 Ovarian Cell, Without Palmitate (converted).
Test [4] deals with LNCaP-Vancouver prostate cells. Briefly: In vitro LNCaP Vancouver prostate cell proliferation assay in lipid reduced medium. In kind it is cell-based. Particulars: read-out: pIC50 LNCaP_Vancouver prostate cell (converted). As to the method:
LNCaP-Vancouver prostate cells were obtained from the Vancouver Prostate Cancer Centre. Cells were maintained in RPMI-1640, 10% Fetal Calf Serum (FCS, Hyclone), 2 mM glutamine and 50 μg/ml Gentamicin.
For the proliferation experiment 1500 LNCaP-Vancouver cells per well were seeded in a 384-well black with clear bottom plate (costar 3712BC) in 40 μl RPMI-1640, 10% Lipid reduced serum (LRS, Hyclone), 50 μg/ml Gentamicin and 2 mM Glutamine and incubated at 37° C., 5% CO2. The next day 10 μl of test compound/DMSO diluted in medium was added (3E-5M, 1E-5M, 3E-6M, 1E-6M, 3E-7M, 1E-7M, 3E-8M, 1E-8M final concentration). Compounds were tested in duplicate. After 96 h incubation at 37° C., 5% CO2 25 μl ATP-glow mix was added. The plate was incubated for 30 min at 37° C. and luminescence was measured with the Envision.
Analysis: Determination of pIC50 Values
pIC50 values were calculated as follows.
where mLC and mHC are the means of the low control wells and high control wells on the plate, after manual exclusion of outliers. The relation between the % Controlmin values and concentration was fitted to a 4-parameter logistic curve using a non-linear least squares regression method to determine the pIC50 value. Outlying data points were excluded manually to get a correct fit. The pIC50 corresponds to −log 10(IC50), if the IC50 is expressed in molar units (http://www.ncbi.nlm.nih.gov/books/NBK91994). The IC50 parameter was always determined by non-linear regression, but one or more of the other parameters may have been held fixed on a relevant input value, such as 0 for the bottom values.
For dose response curves with FASN inhibitors in LNCaP-Vancouver or PC-3M-Luc-C6 cells the curves bottom out around 30 to 40% of the control value. A standard fit PL2, forcing the lower bound to this level was used.
Representative compounds of the present invention were tested according to the procedure as described in Biological Example 4a and 4b above, with results as listed in Table 9, below.

The target of test [5] is Fatty Acid Synthase Keto-reductase Domain (FASN KR) (Homo sapiens, UniProt P49327). Nature of the test: Fatty Acid Synthase keto-reductase domain (FASN KR) inhibition, NADPH oxidation at 340 nm.
Chain of Fatty Acid Synthase Keto-reductase Domain (FASN KR) (P49327 whole entry, the tested form may be a part): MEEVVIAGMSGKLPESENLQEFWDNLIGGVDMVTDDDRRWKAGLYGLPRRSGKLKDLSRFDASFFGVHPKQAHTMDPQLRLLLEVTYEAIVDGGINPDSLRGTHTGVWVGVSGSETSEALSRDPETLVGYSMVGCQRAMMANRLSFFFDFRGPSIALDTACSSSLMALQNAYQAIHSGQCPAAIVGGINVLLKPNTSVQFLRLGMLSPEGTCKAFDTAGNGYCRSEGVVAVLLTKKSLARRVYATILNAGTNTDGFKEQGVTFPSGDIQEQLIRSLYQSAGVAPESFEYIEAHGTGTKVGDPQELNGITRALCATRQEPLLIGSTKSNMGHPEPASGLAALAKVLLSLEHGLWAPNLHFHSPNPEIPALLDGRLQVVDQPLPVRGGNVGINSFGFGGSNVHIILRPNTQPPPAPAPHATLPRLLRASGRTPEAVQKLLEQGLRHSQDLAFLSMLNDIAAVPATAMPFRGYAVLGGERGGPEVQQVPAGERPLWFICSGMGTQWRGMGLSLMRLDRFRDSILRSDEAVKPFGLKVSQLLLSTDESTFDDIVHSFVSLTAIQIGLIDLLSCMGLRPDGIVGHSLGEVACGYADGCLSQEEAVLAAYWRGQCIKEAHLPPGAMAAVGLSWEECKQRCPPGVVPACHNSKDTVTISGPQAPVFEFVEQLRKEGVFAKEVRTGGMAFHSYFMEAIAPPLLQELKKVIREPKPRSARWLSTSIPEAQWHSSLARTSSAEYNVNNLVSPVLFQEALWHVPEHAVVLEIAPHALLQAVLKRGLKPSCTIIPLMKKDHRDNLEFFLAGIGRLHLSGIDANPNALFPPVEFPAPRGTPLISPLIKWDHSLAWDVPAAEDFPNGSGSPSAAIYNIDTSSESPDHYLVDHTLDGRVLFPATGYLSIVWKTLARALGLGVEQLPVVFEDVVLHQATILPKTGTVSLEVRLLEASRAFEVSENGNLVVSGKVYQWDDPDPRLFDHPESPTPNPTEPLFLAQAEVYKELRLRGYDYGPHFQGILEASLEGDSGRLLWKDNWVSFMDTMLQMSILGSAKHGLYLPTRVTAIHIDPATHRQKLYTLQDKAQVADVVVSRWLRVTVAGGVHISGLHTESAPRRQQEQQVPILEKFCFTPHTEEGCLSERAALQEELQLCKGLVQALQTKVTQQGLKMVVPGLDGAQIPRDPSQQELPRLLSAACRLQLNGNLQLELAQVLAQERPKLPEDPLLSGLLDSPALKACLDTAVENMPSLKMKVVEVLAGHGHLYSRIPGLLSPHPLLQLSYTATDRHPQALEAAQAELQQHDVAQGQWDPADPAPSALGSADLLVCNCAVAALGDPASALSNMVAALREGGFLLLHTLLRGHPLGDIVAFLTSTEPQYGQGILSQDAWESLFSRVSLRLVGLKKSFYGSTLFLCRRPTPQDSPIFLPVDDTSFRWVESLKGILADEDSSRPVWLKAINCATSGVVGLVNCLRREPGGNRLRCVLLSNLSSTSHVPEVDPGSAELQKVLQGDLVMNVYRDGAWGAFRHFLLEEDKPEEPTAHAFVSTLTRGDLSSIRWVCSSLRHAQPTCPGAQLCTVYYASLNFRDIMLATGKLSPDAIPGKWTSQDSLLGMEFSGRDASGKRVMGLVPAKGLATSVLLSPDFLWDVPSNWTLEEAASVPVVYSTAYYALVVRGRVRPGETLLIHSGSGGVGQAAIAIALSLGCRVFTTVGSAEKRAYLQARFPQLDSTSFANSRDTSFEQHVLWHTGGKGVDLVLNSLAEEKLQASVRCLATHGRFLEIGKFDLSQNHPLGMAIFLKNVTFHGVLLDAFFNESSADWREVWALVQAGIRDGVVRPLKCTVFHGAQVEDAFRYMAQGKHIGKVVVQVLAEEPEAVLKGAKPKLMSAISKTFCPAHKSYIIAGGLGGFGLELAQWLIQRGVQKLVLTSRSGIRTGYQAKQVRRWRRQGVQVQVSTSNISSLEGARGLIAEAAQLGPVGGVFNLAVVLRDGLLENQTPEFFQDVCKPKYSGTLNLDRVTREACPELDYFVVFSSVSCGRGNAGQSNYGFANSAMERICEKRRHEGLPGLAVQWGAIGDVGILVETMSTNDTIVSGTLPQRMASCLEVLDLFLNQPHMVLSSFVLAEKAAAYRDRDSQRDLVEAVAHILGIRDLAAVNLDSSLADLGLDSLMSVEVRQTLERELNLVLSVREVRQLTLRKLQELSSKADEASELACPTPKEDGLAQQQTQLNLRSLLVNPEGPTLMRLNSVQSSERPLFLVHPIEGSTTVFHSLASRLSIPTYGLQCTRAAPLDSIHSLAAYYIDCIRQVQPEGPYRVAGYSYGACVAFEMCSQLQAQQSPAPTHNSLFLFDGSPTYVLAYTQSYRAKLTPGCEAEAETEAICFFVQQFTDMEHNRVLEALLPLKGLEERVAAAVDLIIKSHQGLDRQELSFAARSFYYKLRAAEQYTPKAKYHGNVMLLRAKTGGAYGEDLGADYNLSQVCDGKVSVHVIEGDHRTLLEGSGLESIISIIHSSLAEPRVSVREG
Experimental: After 20 minutes incubation at room temperature the plate was measured again (T2).
The decrease in absorbance was calculated as (Absorbance before incubation T1)−(Absorbance following incubation T2).
A plot of Controlmin versus test compound concentration was fitted to a 4-parameter logistic curve using a non-linear least squares regression method.

T1 sequence (P49327 whole entry): as the sequence (P49327 whole entry, the tested form may be a part) above

A word on the inhibition: it is the relative decrease from the control value, in per cent. Turning to `O=C(C1CC1)N1CC[C@@H](CN2C(=O)C3(CC3)N=C2c2ccc(-c3ccc4cnc(F)cc4c3)cc2)C1` [compound 220, (R)-6-((1-(cyclopropanecarbonyl)pyrrolidin-3-yl)methyl)-5-(4-(3-fluoroisoquinolin-6-yl)phenyl)-4,6-diazaspiro[2.4]hept-4-en-7-one], the inhibition at 10 µM in test [1] came to 99%. Further, the IC50 in test [1] is 0.0912 µM; in the test on A2780 ovarian cells [2], over 10 µM; in the test with A2780 ovarian cells [3] it was 0.339 µM; in test [4], 1.07 µM; in test [5] it was 0.263 µM.

In the case of `Cc1cc(C2=NC3(CC3)C(=O)N2C[C@@H]2CCN(C(=O)C3CC3)C2)ccc1-c1ccc2sccc2c1` [compound 230, (R)-5-(4-(benzo[b]thiophen-5-yl)-3-methylphenyl)-6-((1-(cyclopropanecarbonyl)pyrrolidin-3-yl)methyl)-4,6-diazaspiro[2.4]hept-4-en-7-one], in test [1], the inhibition at 10 µM came to 107%. In addition, the IC50 in test [1] is 0.0407 µM; in the test with A2780 ovarian cells [2], over 10 µM; with A2780 ovarian cells [3] it was 0.55 µM; in test [4], 1.23 µM; in test [5], 0.105 µM.

Take `O=C(C1CC1)N1CC[C@@H](CN2C(=O)C3(CC3)N=C2c2ccc(-c3ccc4occc4c3)c(F)c2)C1` [compound 232, (R)-5-(4-(benzofuran-5-yl)-3-fluorophenyl)-6-((1-(cyclopropanecarbonyl)pyrrolidin-3-yl)methyl)-4,6-diazaspiro[2.4]hept-4-en-7-one]: the inhibition at 10 µM in test [1] came to 105%. Also, the IC50 was 0.0832 µM in test [1]; over 6.17 µM in the test with A2780 ovarian cells [2]; 2.4 µM in the test with A2780 ovarian cells [3]; 1.82 µM in test [4]; 0.324 µM in test [5].

With `O=C(C1CC1)N1CC[C@@H](CN2C(=O)C3(CC3)N=C2c2ccc(-c3ccc4ncccc4c3)cc2F)C1` [compound 248, (R)-6-((1-(cyclopropanecarbonyl)pyrrolidin-3-yl)methyl)-5-(2-fluoro-4-(quinolin-6-yl)phenyl)-4,6-diazaspiro[2.4]hept-4-en-7-one], in test [1], the inhibition at 10 µM turned out to be 99%. Also, the IC50 in test [1] was 0.0692 µM; in the test with A2780 ovarian cells [2] it was over 10 µM; with A2780 ovarian cells [3] it was 0.513 µM; in test [4] it was 0.479 µM; in test [5], 0.148 µM.

On to `Cc1sc2ccc(-c3ccc(C4=NC5(CC5)C(=O)N4C[C@@H]4CCN(C(=O)C5CC5)C4)cc3)cc2c1C` [compound 296, (R)-6-((1-(cyclopropanecarbonyl)pyrrolidin-3-yl)methyl)-5-(4-(2,3-dimethylbenzo[b]thiophen-5-yl)phenyl)-4,6-diazaspiro[2.4]hept-4-en-7-one], for which the inhibition at 10 µM in test [1] came out at 106%. Besides, the IC50 in test [1] is 0.0389 µM; in the test on A2780 ovarian cells [2] it was over 10 µM; with A2780 ovarian cells [3], about 2.09 µM; in test [4], 3.63 µM; in test [5], 0.0813 µM.

Turning to `O=C(C1CC1)N1CC[C@@H](CN2C(=O)C3(CC3)N=C2c2ccc(-c3ccc4cc(F)ccc4c3)cc2)C1` [compound 311, (R)-6-((1-(cyclopropanecarbonyl)pyrrolidin-3-yl)methyl)-5-(4-(6-fluoronaphthalen-2-yl)phenyl)-4,6-diazaspiro[2.4]hept-4-en-7-one], the IC50 in the test with A2780 ovarian cells [2] is over 10 µM; with A2780 ovarian cells [3], about 0.229 µM; in test [4], 0.302 µM.

As for `Cc1ccc2cc(-c3ccc(C4=NC5(CC5)C(=O)N4CC4CN(C(=O)C5CC5)C4)cc3)ccc2n1` [compound 510, 6-{[1-(Cyclopropylcarbonyl)azetidin-3-yl]methyl}-5-[4-(2-methylquinolin-6-yl)phenyl]-4,6-diazaspiro[2.4]hept-4-en-7-one], the inhibition at 10 µM in test [1] came out at 80%. Further, the results for the IC50 in test [1], in test [4] and in test [5] were 0.955 µM, 4.79 µM and 5.37 µM, respectively.

Consider `O=C([C@H]1CCCO1)N1CC[C@@H](CN2C(=O)C3(CCOCC3)N=C2c2ccc(-c3ccc4occc4c3)cc2)C1` [compound 669, 2-[4-(1-Benzofuran-5-yl)phenyl]-3-({(3R)-1-[(2R)-tetrahydro-furan-2-ylcarbonyl]pyrrolidin-3-yl}methyl)-8-oxa-1,3-diazaspiro[4.5]dec-1-en-4-one], for which, in test [4], the IC50 is 2.82 µM.

For the compound `Cn1ncc2cc(-c3ccc(C4=NC5(CCOCC5)C(=O)N4C[C@@H]4CCN(C(=O)C5CC5)C4)cc3)ccc21` [compound 672, 3-{[(3R)-1-(Cyclopropylcarbonyl)pyrrolidin-3-yl]methyl}-2-[4-(1-methyl-1H-indazol-5-yl)phenyl]-8-oxa-1,3-diazaspiro[4.5]dec-1-en-4-one], the IC50 in the test on A2780 ovarian cells [2] was over 10 µM; in the test with A2780 ovarian cells [3] it was about 0.407 µM; in test [4] it was 2.63 µM.

For `O=C(C1CC1)N1CC[C@@H](CN2C(=O)C3(CCOC3)N=C2c2ccc(-c3ccc4cccnc4c3)cc2)C1` (stereo partly drawn) [compound 680, 3-{[(3R)-1-(Cyclopropylcarbonyl)pyrrolidin-3-yl]methyl}-2-(4-quinolin-7-ylphenyl)-7-oxa-1,3-diazaspiro[4.4]non-1-en-4-one], the inhibition at 10 µM in test [1] is 98%. The IC50 is 0.0794 µM in test [1], 0.339 µM in test [4] and 0.224 µM in test [5].

Consider `O=C(C1CC1)N1CC[C@@H](CN2C(=O)C3(CCOC3)N=C2c2ccc(-c3ccc4occc4c3)cc2)C1` (stereo partly drawn) [compound 686, 2-[4-(1-Benzofuran-5-yl)phenyl]-3-{[(3R)-1-(cyclopropylcarbonyl)pyrrolidin-3-yl]methyl}-7-oxa-1,3-diazaspiro[4.4]non-1-en-4-one], for which the inhibition at 10 µM in test [1] amounted to 98%. Besides, the IC50 is 0.182 µM in test [1], 3.8 µM in test [4] and 0.676 µM in test [5].

As for `Cn1ncc2cc(-c3ccc(C4=NC5(CCOC5)C(=O)N4C[C@@H]4CCN(C(=O)C5CC5)C4)cc3)ccc21` (stereo partly drawn) [compound 690, 3-{[(3R)-1-(Cyclopropylcarbonyl)pyrrolidin-3-yl]methyl}-2-[4-(1-methyl-1H-indazol-5-yl)phenyl]-7-oxa-1,3-diazaspiro[4.4]non-1-en-4-one], the IC50 in the test on A2780 ovarian cells [2] is over 10 µM; in the test on A2780 ovarian cells [3] it was 0.708 µM; in test [4] it was 2.34 µM.

On to `COC(=O)N1CC2(C1)N=C(c1ccc(-c3ccc(-c4cnn(C)c4)cc3)cc1)N(C[C@@H]1CCN(C(=O)C3CC3)C1)C2=O` [compound 725, Methyl 7-{[(3R)-1-(cyclopropylcarbonyl)pyrrolidin-3-yl]methyl}-6-[4′-(1-methyl-1H-pyrazol-4-yl)biphenyl-4-yl]-8-oxo-2,5,7-triazaspiro[3.4]oct-5-ene-2-carboxylate], for which, in test [1], the inhibition at 10 µM is 93%. Moreover, the IC50 in test [1] is 0.245 µM; in test [4] it was 1.66 µM; in test [5], 0.646 µM.

Take `Cc1nnc(-c2ccc(-c3ccc(C4=NC5(CCCC5)C(=O)N4C[C@@H]4CCN(C(=O)C5CC5)C4)c(C)c3)cc2)o1` [compound 882, (R)-3-((1-(cyclopropanecarbonyl)pyrrolidin-3-yl)methyl)-2-(3-methyl-4′-(5-methyl-1,3,4-oxadiazol-2-yl)-[1,1′-biphenyl]-4-yl)-1,3-diazaspiro[4.4]non-1-en-4-one]: in test [1], the inhibition at 10 µM turned out to be 107%. In addition, the IC50 was 0.135 µM in test [1], over 10 µM in the test on A2780 ovarian cells [2], about 0.0891 µM in the test on A2780 ovarian cells [3] and 0.295 µM in test [5].

For `Cc1cc(-c2ccc3c(c2)OCO3)ccc1C1=NC2(CCCC2)C(=O)N1C[C@@H]1CCN(C(=O)C2CC2)C1` [compound 883, (R)-2-(4-(benzo[d][1,3]dioxol-5-yl)-2-methylphenyl)-3-((1-(cyclopropanecarbonyl)pyrrolidin-3-yl)methyl)-1,3-diazaspiro[4.4]non-1-en-4-one], the inhibition at 10 µM in test [1] was determined as 100%. Also, the IC50 is 0.269 µM in test [1], over 10 µM with A2780 ovarian cells [2], about 2.45 µM with A2780 ovarian cells [3] and 1.05 µM in test [5].
